Data: PMC9611758, “Bioactive Platinum(IV) Complexes Incorporating Halogenated Phenylacetates” (Molecules, 2022)
Like-named read-outs stand apart in the source and are kept apart here.

Key:
[1] = system: ADDP-resistant ovarian variant; design: method as in PMID 36142383; details: MTT assay, 72 h; cited from earlier work
[2] = system: BE2-C neuroblastoma; design: method as in PMID 36142383; details: MTT assay, 72 h; cited from earlier work
[3] = system: SJ-G2 glioblastoma; design: method as in PMID 36142383; details: MTT assay, 72 h; cited from earlier work
[4] = system: U87 glioblastoma; design: method as in PMID 36142383; details: MTT assay, 72 h; cited from earlier work
[5] = system: murine leukaemia cell line (L1210); experiment: Cytotoxicity in L1210 (literature); format: cell-based; details: SS more cytotoxic than RR
Description: Chirality is crucial to the biological activity of the studied complexes.

[6] = system: MIA pancreas; design: method as in PMID 36142383; details: MTT assay, 72 h; cited from earlier work
[7] = system: HT29 colon cells; design: method as in PMID 36142383; details: cited from earlier work
[8] = system: HT29 colon; experiment: MTT growth inhibition assay, HT29; format: cell-based, human
[9] = system: HT29 colon; design: method as in PMID 36142383; details: MTT assay, 72 h; cited from earlier work
[10] = system: PC3 (prostate carcinoma) tumour xenografts; design: method as in PMID 18997969; details: PC3 xenograft mice; cited from earlier work
[11] = system: ADDP-resistant ovarian variant; experiment: MTT growth inhibition assay, ADDP; format: cell-based, human
[12] = system: panel of cell lines; design: method as in PMID 36142383; details: average over the cell lines tested, MTT assay, 72 h; cited from earlier work
[13] = system: Du145 prostate; design: method as in PMID 36142383; details: MTT assay, 72 h; cited from earlier work
[14] = system: MCF-7 breast; design: method as in PMID 36142383; details: MTT assay, 72 h; cited from earlier work
[15] = system: non-tumour derived MCF10A breast line; design: method as in PMID 36142383; details: MTT assay, 72 h; cited from earlier work
[16] = system: A431 skin; design: method as in PMID 36142383; details: MTT assay, 72 h; cited from earlier work
[17] = system: A2780 ovarian; design: method as in PMID 36142383; details: MTT assay, 72 h; cited from earlier work
[18] = system: H460 lung; design: method as in PMID 36142383; details: MTT assay, 72 h; cited from earlier work
[19] = system: murine leukaemia cell line (L1210); details: cited from earlier work
[20] = system: peritoneal carcinomatosis; design: method as in PMID 20535526; details: cited from earlier work
[21] = system: Du145 prostate; experiment: MTT growth inhibition assay, Du145; format: cell-based, human; details: Du145 prostate, ratio of GI50 values
[22] = system: panel of cell lines; experiment: MTT growth inhibition assay, whole panel of cell lines; format: cell-based, human; details: platinum(IV) precursor less cytotoxic than platinum(II) precursor, all cell lines
[23] = design: method as in earlier work; details: heterocyclic ligand; cited from earlier work
[24] = system: HT29 colon cells; experiment: ROS detection assay (DCFH-DA); format: cell-based, human; details: HT29 colon cells, treated at GI50 concentration (TBHP positive control 20 μM)

Row | SMILES | GI50 [1] [µM] | GI50 [2] [µM] | GI50 [3] [µM] | GI50 [4] [µM] | GI50 [6] [µM] | ROS production 24 h [7] [RFU] | ROS production 48 h [7] [RFU] | ROS production 72 h [7] [RFU] | GI50 [9] [µM] | GI50 [12] [µM] | GI50 [13] [µM] | GI50 [14] [µM] | GI50 [15] [µM] | GI50 [16] [µM] | GI50 [17] [µM] | GI50 [18] [µM] | GI50 [19] [µM] | other results
1 | C1=C[N]2[Pt+2][N]3C=CC=c4ccc(c2c43)=C1.N[C@H]1CCCC[C@@H]1N [PHENSS, [Pt^II(phen)(SS-DACH)]^2+] | 0.19 ± 0.047 | 0.38 ± 0.046 | 0.33 ± 0.066 | 0.98 ± 0.27 | 0.2 ± 0.057 | 174 ± 2 | 172 ± 9 | 176 ± 7 | 0.16 ± 0.045 | 0.434 ± 0.11 | 0.1 ± 0.038 | 1.5 ± 0.5 | 0.3 ± 0.058 | 0.48 ± 0.17 | 0.23 ± 0.03 | 0.36 ± 0.035 | 0.13 | fold difference in cytotoxicity between RR-DACH and SS-DACH enantiomer [5]: ~12 fold; fold more reactive compared to cisplatin [8]: 70 fold; mean tumour weight in relation to the control group [10]: comparable decrease in mean tumour weight; toxicity / mortality [10]: no obvious signs of toxicity; fold more potent than cisplatin [11]: ~150 fold
2 | Cc1c(C)c2c3c4c1=CC=C[N]4[Pt+2][N]3C=CC=2.N[C@@H]1CCCC[C@H]1N [Complex 56MERR] |  |  |  |  |  |  |  |  |  |  |  |  |  |  |  |  | 0.46 | 
3 | Cc1c(C)c2cccnc2c2ncccc12.N[C@H]1CCCC[C@@H]1N.[Pt] [Complex 56MESS, [Pt^II(5,6-Me2phen)(SS-DACH)]^2+] | 0.013 ± 0.002 | 0.059 ± 0.004 | 0.066 ± 0.022 | 0.035 ± 0.0064 | 0.013 ± 0.002 | 240 ± 5 | 218 ± 3 | 255 ± 4 | 0.01 ± 0.0016 | 0.036 ± 0.01 | 0.0046 ± 0.0004 | 0.093 ± 0.044 | 0.016 ± 0.001 | 0.029 ± 0.001 | 0.076 ± 0.057 | 0.021 ± 0.002 | 0.009 | fold difference in cytotoxicity between RR-DACH and SS-DACH enantiomer [5]: 51 fold; fold more reactive compared to cisplatin ([8]; HT29 colon, ratio of GI50 values): 1100 fold; fold more potent than cisplatin ([11]; ADDP-resistant ovarian variant, ratio of GI50 values): 2150 fold; nephrotoxicity ([20]; at pharmacological doses): induced nephrotoxicity; tumour suppression response ([20]; intravenous and intraperitoneal treatment): did not elicit a tumour suppression response; fold increase in potency over carboplatin [21]: ~3300 fold; fold increase in potency over oxaliplatin [21]: 630 fold
4 | Cc1c(C)c2c3c4c1=CC=C[N]4[Pt+2]([OH])([OH])[N]3C=CC=2.N[C@H]1CCCC[C@@H]1N [56MESS(IV)(OH)2] | 0.17 ± 0.12 | 0.24 ± 0.022 | 0.21 ± 0.045 | 0.19 ± 0.023 | 0.043 ± 0.0025 | 259 ± 3 | 356 ± 11 | 438 ± 7 | 0.036 ± 0.007 | 0.151 ± 0.05 | 0.015 ± 0.0026 | 0.48 ± 0.14 | 0.061 ± 0.007 | 0.12 ± 0.022 | 0.059 ± 0.007 | 0.19 ± 0.15 |  | fold difference in average GI50 versus corresponding platinum(II) precursor [22]: 4 fold
5 | N[C@H]1CCCC[C@@H]1N.[OH][Pt+2]1([OH])[N]2C=CC=c3ccc4c(c32)[N]1C=CC=4 [PHENSS(IV)(OH)2] | 1.3 ± 0.35 | 3 ± 0.53 | 1.7 ± 0.35 | 4.9 ± 0.61 | 3.4 ± 2.2 | 144 ± 5 | 273 ± 4 | 303 ± 1 | 0.71 ± 0.3 | 3.32 ± 0.88 | 0.31 ± 0.092 | 16 | 1.7 ± 0.2 | 4.3 ± 0.53 | 0.8 ± 0.084 | 1.7 ± 0.2 |  | fold difference in average GI50 versus corresponding platinum(II) precursor [22]: ~8 fold
6 | C1=C[N]2[Pt+2][N]3C=CC=c4ccc(c2c43)=C1.N[C@@H]1CCCC[C@H]1N [PHENRR] |  |  |  |  |  |  |  |  |  |  |  |  |  |  |  |  | 1.5 | 
7 | c1cnc2c(c1)ccc1cccnc12 [phen, 1,10-phenanthroline] |  |  |  |  |  |  |  |  |  |  |  |  |  |  |  |  |  | pKa [23]: 4.9
8 | Cc1c(C)c2cccnc2c2ncccc12 [5,6-Me2phen, 5,6-dimethyl-1,10-phenanthroline] |  |  |  |  |  |  |  |  |  |  |  |  |  |  |  |  |  | pKa [23]: 5.6
9 | N.N.[Cl][Pt][Cl] [Cisplatin, Cis-diamminedichloroplatinum(II)] | 28 | 1.9 ± 0.2 | 0.4 ± 0.1 | 3.8 ± 1.1 | 7.5 ± 1.3 |  |  |  | 11.3 | 5.84 ± 0.61 | 1.2 ± 0.1 | 6.5 ± 0.8 | 5.2 ± 0.52 | 2.4 ± 0.3 | 1 ± 0.1 | 0.9 ± 0.2 |  | mean tumour weight in relation to the control group [10]: comparable decrease in mean tumour weight; ROS production 24 h ([24]; 24 h): 221 ± 10 RFU; ROS production 48 h ([24]; 48 h): 280 ± 12 RFU; ROS production 72 h ([24]; 72 h): 318 ± 9 RFU
